{"source": "patent US9169269B2", "about": "“Water-soluble solid pharmaceutical inclusion complexes and their aqueous solutions for oral, ophthalmic, topical or parenteral use containing a macrolide and certain cyclodextrins” (EUTICALS SPA, priority 2010, dated 2015)", "assay_type_in_all_cases": "physicochemical", "key": {"[1]": {"assay": "Stability of amorphous and crystalline Rapamycin at 60° C. (HPLC chromatographic purity)", "conditions": "for decrease of chromatographic purity: after 408 hours (17 days)", "description": "For the HPLC determination of chromatographic purity of Rapamycin: Column: Thermo BDS Hypersil C18; 3 μm (100×4.6 mm). Mobile Phase composition: isocratic elution • Component A: 50% acetonitrile • Component B: 50% ammonium acetate buffer pH 5.8 (concentration 0.8 g/l of ammonium acetate; the final pH value was brought to a final value of 5.8 with glacial acetic acid)\nFlow rate: 1.0 ml/min. Column temperature: 55° C. Volume of injection: 100 μl.\nSample solution: weight 25 mg of Rapamycin and dissolve in 100 ml of acetonitrile/water 1/1 v/v (final concentration 0.25 mg/ml). UV detector: 278 nm"}, "[2]": {"assay": "Stability of Everolimus gamma CD complex versus amorphous Everolimus (powder) at 60° C., total impurities (HPLC)", "conditions": "powder 60° C.", "description": "For the HPLC determination of the chromatographic purity of Temsirolimus and Everolimus: Column: Zorbax SB-C18; 3.5 μm (75×4.6 mm), Precolumn: Symmetry Shield RP18; 5 μm (20×3.9 mm).\nMobile Phase composition: • Component A: 900 ml of water, 100 ml of acetonitrile and 50 μl of 50% aqueous acetic acid • Component B: 1000 ml of acetonitrile and 50 μl of 50% aqueous acetic acid Gradient elution: […]\nFlow rate: 1 ml/min. Column temperature: 60° C. Volume of injection: 20 μl.\nSample preparation: solution of 0.5 mg/ml in acetonitrile. Detector UV: 278 nm\nThe stability data on Everolimus complex with CD prepared according each of the examples 2 and 3 are reported on FIG. 3 and on Table 7.\nIn particular, in FIG. 3, are reported the sum of the related by products originated by degradation (HPLC data in area %) during a stability tests performed on the powder at 60° C. for 96 hours."}, "[3]": {"assay": "Preliminary stability tests on micronized Rapamycin and in solution (ethanol)", "conditions": "finely micronized (10^−5 microns) and in solution (ethanol), within few hours", "description": "In order to proceed with formulative studies we have performed preliminary stability tests on micronized Rapamycin (10^−5 microns) and in solution (ethanol)."}}, "data": [{"smiles": "CO[C@H]1C[C@@H]2CC[C@@H](C)[C@@](O)(O2)C(=O)C(=O)N2CCCC[C@H]2C(=O)O[C@H]([C@H](C)C[C@@H]2CC[C@@H](O)[C@H](OC)C2)CC(=O)[C@H](C)/C=C(\\C)[C@@H](O)[C@@H](OC)C(=O)[C@H](C)C[C@H](C)/C=C/C=C/C=C/1C", "note": "[Crystalline Rapamycin, Rapamycin]", "values": [{"measurement": "chromatographic purity (HPLC data)", "setting": "[1]; 0 hours", "value": 99.10, "unit": "area %"}, {"measurement": "chromatographic purity (HPLC data)", "setting": "[1]; 20 hours", "value": 99.10, "unit": "area %"}, {"measurement": "chromatographic purity (HPLC data)", "setting": "[1]; 96 hours", "value": 99.10, "unit": "area %"}, {"measurement": "chromatographic purity (HPLC data)", "setting": "[1]; 168 hours", "value": 99.00, "unit": "area %"}, {"measurement": "chromatographic purity (HPLC data)", "setting": "[1]; 408 hours", "value": 99.00, "unit": "area %"}, {"measurement": "decrease of chromatographic purity", "setting": "[1]", "value": "the same chromatographic purity"}]}, {"smiles": "CO[C@H]1C[C@@H]2CC[C@@H](C)[C@@](O)(O2)C(=O)C(=O)N2CCCC[C@H]2C(=O)O[C@H]([C@H](C)C[C@@H]2CC[C@@H](OCCO)[C@H](OC)C2)CC(=O)[C@H](C)/C=C(\\C)[C@@H](O)[C@@H](OC)C(=O)[C@H](C)C[C@H](C)/C=C/C=C/C=C/1C", "note": "[Amorphous Everolimus, Everolimus]", "values": [{"measurement": "HPLC area % of total impurities", "setting": "[2]; 0 hours", "value": 1.5, "unit": "area %"}, {"measurement": "HPLC area % of total impurities", "setting": "[2]; 24 hours", "value": 2.44, "unit": "area %"}, {"measurement": "HPLC area % of total impurities", "setting": "[2]; 48 hours", "value": 4.52, "unit": "area %"}, {"measurement": "HPLC area % of total impurities", "setting": "[2]; 72 hours", "value": 7.1, "unit": "area %"}, {"measurement": "HPLC area % of total impurities", "setting": "[2]; 96 hours", "value": 9.2, "unit": "area %"}, {"measurement": "HPLC area % of total impurities", "setting": "[2]; 168 hours", "value": 14.1, "unit": "area %"}]}, {"smiles": "CO[C@H]1C[C@@H]2CC[C@@H](C)[C@@](O)(O2)C(=O)C(=O)N2CCCC[C@H]2C(=O)O[C@H]([C@H](C)C[C@@H]2CC[C@@H](O)[C@H](OC)C2)CC(=O)[C@H](C)/C=C(\\C)[C@@H](O)[C@@H](OC)C(=O)[C@H](C)C[C@H](C)/C=C/C=C/C=C/1C", "note": "[Rapamycin]", "values": [{"measurement": "decrease in the assay value", "setting": "[3]", "value": "−10", "unit": "%"}]}, {"smiles": "CO[C@H]1C[C@@H]2CC[C@@H](C)[C@@](O)(O2)C(=O)C(=O)N2CCCC[C@H]2C(=O)O[C@H]([C@H](C)C[C@@H]2CC[C@@H](O)[C@H](OC)C2)CC(=O)[C@H](C)/C=C(\\C)[C@@H](O)[C@@H](OC)C(=O)[C@H](C)C[C@H](C)/C=C/C=C/C=C/1C", "note": "[Amorphous Rapamycin, Rapamycin]", "values": [{"measurement": "chromatographic purity (HPLC data)", "setting": "[1]; 0 hours", "value": 98.90, "unit": "area %"}, {"measurement": "chromatographic purity (HPLC data)", "setting": "[1]; 20 hours", "value": 93.00, "unit": "area %"}, {"measurement": "chromatographic purity (HPLC data)", "setting": "[1]; 96 hours", "value": 90.00, "unit": "area %"}, {"measurement": "chromatographic purity (HPLC data)", "setting": "[1]; 168 hours", "value": 88.00, "unit": "area %"}, {"measurement": "chromatographic purity (HPLC data)", "setting": "[1]; 408 hours", "value": 84.90, "unit": "area %"}, {"measurement": "decrease of chromatographic purity", "setting": "[1]", "value": "−14", "unit": "%"}]}]}
